Data as given in ChEMBL document CHEMBL6083255, “Synthesis and biological evaluation of novel isobenzofuran-1(3H)-one derivatives as antidepressant agents” (2024).
Calls of active or inactive are those of the source. The calls are words filed in the database; no cut-off is given here.

Columns and labels:
RBL-2H3 [1] = assay: Cytotoxicity against Wistar rat RBL-2H3 cells assessed as cell viability at 5 uM incubated for 24 hrs by MTT assay; assay type: functional; conditions: read-out: Activity
RBL-2H3 [2] = assay: Cytotoxicity against Wistar rat RBL-2H3 cells assessed as cell viability at 125 uM incubated for 24 hrs by MTT assay; assay type: functional; conditions: read-out: Activity
[3] = target: Sodium-dependent serotonin transporter (Rattus norvegicus) (UniProt P31652); assay: Inhibition of SERT in Wistar rat RBL-2H3 cells assessed as decrease in fluorescence intensity at 10 uM preincubated for 2 hrs followed by APP+ addition and measured after 1 hr by fluorescence based assay; assay type: cell-based; conditions: time 3.0 hrs
RBL-2H3 [4] = assay: Cytotoxicity against Wistar rat RBL-2H3 cells assessed as cell viability at 1 uM incubated for 24 hrs by MTT assay; assay type: functional; conditions: read-out: Activity
RBL-2H3 [5] = assay: Cytotoxicity against Wistar rat RBL-2H3 cells assessed as cell viability at 25 uM incubated for 24 hrs by MTT assay; assay type: functional; conditions: read-out: Activity
CHO-K1 = assay: Antagonist activity at mu opioid receptor in CHO-K1 cells assessed as intracellular fluorescence intensity at 50 uM incubated for 2 mins by microplate reader assay; assay type: cell-based; conditions: Cricetulus griseus, filed as antagonist

Sodium-dependent serotonin transporter (Rattus norvegicus), sequence (P31652 whole entry): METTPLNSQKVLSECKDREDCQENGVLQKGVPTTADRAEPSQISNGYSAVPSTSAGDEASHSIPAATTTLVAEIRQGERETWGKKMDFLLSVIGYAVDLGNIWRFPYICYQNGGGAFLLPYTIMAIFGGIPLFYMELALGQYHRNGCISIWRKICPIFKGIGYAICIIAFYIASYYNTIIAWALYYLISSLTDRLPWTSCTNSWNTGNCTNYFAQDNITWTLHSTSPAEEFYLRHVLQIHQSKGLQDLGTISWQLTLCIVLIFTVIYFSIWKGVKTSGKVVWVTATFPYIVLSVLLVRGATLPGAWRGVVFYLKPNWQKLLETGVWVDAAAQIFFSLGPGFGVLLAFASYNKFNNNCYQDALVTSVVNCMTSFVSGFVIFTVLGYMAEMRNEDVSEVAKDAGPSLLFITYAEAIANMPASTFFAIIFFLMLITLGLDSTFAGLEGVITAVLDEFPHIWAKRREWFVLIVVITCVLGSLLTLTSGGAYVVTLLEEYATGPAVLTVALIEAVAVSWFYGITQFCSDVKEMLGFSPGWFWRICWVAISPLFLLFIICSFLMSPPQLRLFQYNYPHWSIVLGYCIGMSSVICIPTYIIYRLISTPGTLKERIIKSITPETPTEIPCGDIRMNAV

Structure (SMILES): CC(=O)N1CCN(CC2(c3ccc(Cl)cc3)OC(=O)c3ccccc32)CC1 (stereo unspecified)
- viability at 5 µM (RBL-2H3 [1]): 106%
- viability at 125 µM (RBL-2H3 [2]): 141%
- Activity [3]: Active
- viability at 1 µM (RBL-2H3 [4]): 99.8%
- viability at 25 µM (RBL-2H3 [5]): 125%

Structure (SMILES): CCN(CC)CC1(c2ccccc2)OC(=O)c2ccccc21 (stereo unspecified)
- viability at 5 µM (RBL-2H3 [1]): 113%
- viability at 125 µM (RBL-2H3 [2]): 127%
- Activity [3]: Active
- viability at 1 µM (RBL-2H3 [4]): 106%
- viability at 25 µM (RBL-2H3 [5]): 125%

Structure (SMILES): CC1CCCN(CC2(c3ccc(Cl)cc3)OC(=O)c3ccccc32)C1 (stereo unspecified)
- viability at 5 µM (RBL-2H3 [1]): 98%
- viability at 125 µM (RBL-2H3 [2]): 104%
- Activity [3]: Active
- viability at 1 µM (RBL-2H3 [4]): 99.2%
- viability at 25 µM (RBL-2H3 [5]): 102%

Structure (SMILES): CCN(CC)CC1(c2ccc(C)cc2)OC(=O)c2ccccc21 (stereo unspecified)
- viability at 5 µM (RBL-2H3 [1]): 106%
- viability at 125 µM (RBL-2H3 [2]): 160%
- Activity [3]: Active
- viability at 1 µM (RBL-2H3 [4]): 101%
- viability at 25 µM (RBL-2H3 [5]): 123%

Structure (SMILES): CC1CCCN(CC2(c3ccccc3)OC(=O)c3ccccc32)C1 (stereo unspecified)
- viability at 5 µM (RBL-2H3 [1]): 101%
- viability at 125 µM (RBL-2H3 [2]): 141%
- Activity [3]: Active
- viability at 1 µM (RBL-2H3 [4]): 92.7%
- viability at 25 µM (RBL-2H3 [5]): 116%

Structure (SMILES): C=CCN1CC[C@]23c4c5ccc(O)c4O[C@H]2C(=O)CC[C@@]3(O)[C@H]1C5
- Activity (CHO-K1): Active

Structure (SMILES): O=C1OC(CN2CCCCCC2)(c2ccc(Cl)cc2)c2ccccc21 (stereo unspecified)
- viability at 5 µM (RBL-2H3 [1]): 109%
- viability at 125 µM (RBL-2H3 [2]): 144%
- Activity [3]: Active
- viability at 1 µM (RBL-2H3 [4]): 104%
- viability at 25 µM (RBL-2H3 [5]): 119%

Structure (SMILES): Cc1ccc(C2(CN3CCCC3)OC(=O)c3ccccc32)cc1 (stereo unspecified)
- viability at 5 µM (RBL-2H3 [1]): 95.5%
- viability at 125 µM (RBL-2H3 [2]): 122%
- Activity [3]: Active
- viability at 1 µM (RBL-2H3 [4]): 94.8%
- viability at 25 µM (RBL-2H3 [5]): 100%

Structure (SMILES): CCOC(=O)C1CCN(CC2(c3ccc(Cl)cc3)OC(=O)c3ccccc32)CC1 (stereo unspecified)
- viability at 5 µM (RBL-2H3 [1]): 97%
- viability at 125 µM (RBL-2H3 [2]): 99%
- Activity [3]: inactive
- viability at 1 µM (RBL-2H3 [4]): 99%
- viability at 25 µM (RBL-2H3 [5]): 96.4%

Structure (SMILES): O=C1OC(CN2CCCC2)(c2ccccc2)c2ccccc21 (stereo unspecified)
- viability at 5 µM (RBL-2H3 [1]): 139%
- viability at 125 µM (RBL-2H3 [2]): 181%
- Activity [3]: Active
- viability at 1 µM (RBL-2H3 [4]): 119%
- viability at 25 µM (RBL-2H3 [5]): 133%

Structure (SMILES): CC(=O)N1CCN(CC2(c3ccc(C)cc3)OC(=O)c3ccccc32)CC1 (stereo unspecified)
- viability at 5 µM (RBL-2H3 [1]): 97.2%
- viability at 125 µM (RBL-2H3 [2]): 120%
- Activity [3]: Active
- viability at 1 µM (RBL-2H3 [4]): 93.3%
- viability at 25 µM (RBL-2H3 [5]): 119%

Structure (SMILES): CCOC(=O)C1CCN(CC2(c3ccc(C)cc3)OC(=O)c3ccccc32)CC1 (stereo unspecified)
- viability at 5 µM (RBL-2H3 [1]): 108%
- viability at 125 µM (RBL-2H3 [2]): 157%
- Activity [3]: inactive
- viability at 1 µM (RBL-2H3 [4]): 102%
- viability at 25 µM (RBL-2H3 [5]): 125%

Structure (SMILES): CC(=O)N1CCN(CC2(c3ccccc3)OC(=O)c3ccccc32)CC1 (stereo unspecified)
- viability at 5 µM (RBL-2H3 [1]): 109%
- viability at 125 µM (RBL-2H3 [2]): 165%
- Activity [3]: inactive
- viability at 1 µM (RBL-2H3 [4]): 102%
- viability at 25 µM (RBL-2H3 [5]): 129%

Structure (SMILES): Cc1ccc(C2(CN3CCCCC3)OC(=O)c3ccccc32)cc1 (stereo unspecified)
- viability at 5 µM (RBL-2H3 [1]): 98.4%
- viability at 125 µM (RBL-2H3 [2]): 108%
- Activity [3]: Active
- viability at 1 µM (RBL-2H3 [4]): 101%
- viability at 25 µM (RBL-2H3 [5]): 99%

Structure (SMILES): Cc1ccc(C2(CN3CCCC(C)C3)OC(=O)c3ccccc32)cc1 (stereo unspecified)
- viability at 5 µM (RBL-2H3 [1]): 101%
- viability at 125 µM (RBL-2H3 [2]): 157%
- Activity [3]: inactive
- viability at 1 µM (RBL-2H3 [4]): 97.6%
- viability at 25 µM (RBL-2H3 [5]): 121%

Structure (SMILES): Cc1ccc(C2(CN3CCCCCC3)OC(=O)c3ccccc32)cc1 (stereo unspecified)
- viability at 5 µM (RBL-2H3 [1]): 106%
- viability at 125 µM (RBL-2H3 [2]): 171%
- Activity [3]: inactive
- viability at 1 µM (RBL-2H3 [4]): 98.8%
- viability at 25 µM (RBL-2H3 [5]): 140%

Structure (SMILES): O=C1OC(CN2CCCCC2)(c2ccccc2)c2ccccc21 (stereo unspecified)
- viability at 5 µM (RBL-2H3 [1]): 102%
- viability at 125 µM (RBL-2H3 [2]): 112%
- Activity [3]: Active
- viability at 1 µM (RBL-2H3 [4]): 99.2%
- viability at 25 µM (RBL-2H3 [5]): 118%

Structure (SMILES): CCOC(=O)C1CCN(CC2(c3ccccc3)OC(=O)c3ccccc32)CC1 (stereo unspecified)
- viability at 5 µM (RBL-2H3 [1]): 105%
- viability at 125 µM (RBL-2H3 [2]): 178%
- Activity [3]: inactive
- viability at 1 µM (RBL-2H3 [4]): 99.7%
- viability at 25 µM (RBL-2H3 [5]): 130%
